From patent US20250129430A1, “HIGH ATP-AFFINITY PROTEIN AS THERAPEUTIC TARGET FOR INTRACTABLE CANCER MOLECULAR SUBTYPES AND INHIBITOR THEREOF” (VeraVerse Co., Ltd., priority 2021, published 2025)

Experiments:
Type in all cases: cell-based, human
SNU16 = experiment: Cell viability drug screen, 12-point dose-response AUC; conditions: SNU16 cells; 72 hours
In short: (§1)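 Twelve half-log concentrations per compound were tested on gastric cancer cells with an EMT phenotype (5×10^3/well, dosed 24 h post-seeding). Viability after 72 h was quantified via luminescence relative to 0.5% DMSO, and repeats were averaged.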

SNU668 = experiment: as above; conditions: SNU668 cells (SEM subtype); 72 hours
In short: as §1

MKN1 = experiment: as above; conditions: MKN1 cells; 72 hours
In short: as §1

SNU1967 = experiment: as above; conditions: SNU1967 cells; 72 hours
In short: as §1

MKN74 = experiment: as above; conditions: MKN74 cells; 72 hours
In short: (§2)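 Luminescent viability readings, taken 15 min after reagent addition at room temperature, were normalized to the 0.5% DMSO control to build 12-point dose-response curves. Trapezoidal integration gave the AUC. Cells had been plated at 5×10^3 per well and then exposed to half-log dilutions for 72 h.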

MKN45 = experiment: as above; conditions: MKN45 cells (non-SEM subtype); 72 hours
In short: as §2

SNU1750 = experiment: as above; conditions: SNU1750 cells (SEM subtype); 72 hours
In short: as §1

MKN28 = experiment: as above; conditions: MKN28 cells; 72 hours
In short: as §1

YCC11 = experiment: as above; conditions: YCC11 cells (SEM subtype); 72 hours
In short: as §1

Hs746T = experiment: as above; conditions: Hs746T cells (SEM subtype); 72 hours
In short: as §1

SNU638 = experiment: as above; conditions: SNU638 cells; 72 hours
In short: as §1

KATO3 = experiment: as above; conditions: KATO3 cells; 72 hours
In short: as §1

SNU216 = experiment: as above; conditions: SNU216 cells (non-SEM subtype); 72 hours
In short: as §2

SK4 = experiment: as above; conditions: SK4 cells (SEM subtype); 72 hours
In short: as §1

NCC24 = experiment: as above; conditions: NCC24 cells; 72 hours
In short: as §1

NCC19 = experiment: as above; conditions: NCC19 cells; 72 hours
In short: as §1

SNU719 = experiment: as above; conditions: SNU719 cells; 72 hours
In short: as §2

OCUM1 = experiment: as above; conditions: OCUM1 cells; 72 hours
In short: as §1

SNU620 = experiment: as above; conditions: SNU620 cells; 72 hours
In short: as §1

NCI_N87 = experiment: as above; conditions: NCI_N87 cells; 72 hours
In short: as §1

NCC20 = experiment: as above; conditions: NCC20 cells; 72 hours
In short: as §1

NCC59 = experiment: as above; conditions: NCC59 cells; 72 hours
In short: as §1

YCC3 = experiment: as above; conditions: YCC3 cells; 72 hours
In short: as §1

SNU601 = experiment: as above; conditions: SNU601 cells; 72 hours
In short: as §1

AGS = experiment: as above; conditions: AGS cells (non-SEM subtype); 72 hours
In short: as §2

SNU1 = experiment: as above; conditions: SNU1 cells; 72 hours
In short: as §1

SNU484 = experiment: as above; conditions: SNU484 cells (SEM subtype); 72 hours
In short: as §1

YCC2 = experiment: as above; conditions: YCC2 cells; 72 hours
In short: as §1

FU97 = experiment: as above; parameters: Average Area Under the Viability Curve (AUC), AUC norm value: scale not given here; conditions: FU97 cells; 72 hours
In short: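 Trapezoidal AUC of a 12-point, DMSO-normalized dose-response curve. Luminescent viability was measured after 72 h of exposure at 37° C to half-log serial dilutions (0.5% DMSO control), dosed 24 h after plating FU97 cells at 5×10^3 per well.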

[1] = test system: non-SEM-type gastric cancer cell line; experiment: Cell viability drug screen, AUC summary over non-SEM-type lines; conditions: in the non-SEM-type gastric cancer cell line
[2] = test system: SEM-type gastric cancer cell line; experiment: Cell viability drug screen, AUC summary over SEM-type lines
Protocol: An FDA-approved small-molecule pharmacological compound (#L1300) and an anticancer compound for research (#L2000) were purchased from Selecckchem and a 10 mM solution was prepared in DMSO. A total of 1,345 compounds were tested the cell viability of the seven EMT gastric cancer cell lines.
Cells cultured for cell-based drug assay were inoculated into a 96-well white optical plate (Corning) at 5×10^3 cells per well. After 24 hours after inoculation, a 2.5 MJT (primary screen) or a half-log 12-serial diluent (secondary screen) of the pharmacological compound contained in DMSO is added to the cells with a robot using a BioMek FXp liquid processor (Beckman) to add to the cells at 50 mM. The final drug concentration in the 5 ns range and the DMSO specification control (0.5%) were calculated. The cells were then further incubated at 37° C. in a 5% CO2 incubator for 72 hours prior to measuring cell viability using the extra-GLO assay kit (Promega). The luminescent properties were measured after 15 min incubation at room temperature using a plate stacker equipped with a plate stacker. The normalized viability for the DMSO-based control was measured to generate a cell line-specific 12-point dose-response curve for each pharmacological compound, and then the area under the curve (AUC) was calculated using a trapezoidal method.

| SMILES | Average Area Under the Viability Curve (AUC), AUC norm value (SNU16) | Average Area Under the Viability Curve (AUC), AUC norm value (SNU668) | Average Area Under the Viability Curve (AUC), AUC norm value (MKN1) | Average Area Under the Viability Curve (AUC), AUC norm value (SNU1967) | Average Area Under the Viability Curve (AUC), AUC norm value (MKN74) | Average Area Under the Viability Curve (AUC), AUC norm value (MKN45) | Average Area Under the Viability Curve (AUC), AUC norm value (SNU1750) | Average Area Under the Viability Curve (AUC), AUC norm value (MKN28) | Average Area Under the Viability Curve (AUC), AUC norm value (YCC11) | Average Area Under the Viability Curve (AUC), AUC norm value (Hs746T) | Average Area Under the Viability Curve (AUC), AUC norm value (SNU638) | Average Area Under the Viability Curve (AUC), AUC norm value (KATO3) | Average Area Under the Viability Curve (AUC), AUC norm value (SNU216) | Average Area Under the Viability Curve (AUC), AUC norm value (SK4) | Average Area Under the Viability Curve (AUC), AUC norm value (NCC24) | Average Area Under the Viability Curve (AUC), AUC norm value (NCC19) | Average Area Under the Viability Curve (AUC), AUC norm value (SNU719) | Average Area Under the Viability Curve (AUC), AUC norm value (OCUM1) | Average Area Under the Viability Curve (AUC), AUC norm value (SNU620) | Average Area Under the Viability Curve (AUC), AUC norm value (NCI_N87) | further results |
| --- | --- | --- | --- | --- | --- | --- | --- | --- | --- | --- | --- | --- | --- | --- | --- | --- | --- | --- | --- | --- | --- |
| Cn1c(=O)n(-c2ccc(C(C)(C)C#N)cc2)c2c3cc(-c4cnc5ccccc5c4)ccc3ncc21 [BEZ235 (NVP-BEZ235), BEZ235] | −0.9859 | 1.258 | −0.845 | −0.17 | 0.02041 | 1.887 | −1.129 | 2.007 | −2.698 | −0.9926 | 0.8979 | 2.717 | −0.6351 | −3.142 | 0.08486 | 0.9022 | 5.119 | −0.3719 | −0.6893 | 0.7505 | Average Area Under the Viability Curve (AUC), AUC norm value (NCC20): −1.542; Average Area Under the Viability Curve (AUC), AUC norm value (NCC59): 2.997; Average Area Under the Viability Curve (AUC), AUC norm value (YCC3): 0.9008; Average Area Under the Viability Curve (AUC), AUC norm value (SNU601): 2.66; Average Area Under the Viability Curve (AUC), AUC norm value (AGS): −1.768; Average Area Under the Viability Curve (AUC), AUC norm value (SNU1): −1.128; Average Area Under the Viability Curve (AUC), AUC norm value (SNU484): 0; Average Area Under the Viability Curve (AUC), AUC norm value (YCC2): 0.6403; Average Area Under the Viability Curve (AUC), AUC norm value (FU97): −2.382; AUC value [1]: high; normalized viability AUC [2]: negative |
| CCC[C@H](NC(=O)/C(C#N)=C/c1cccc(Br)n1)c1ccccc1 [WP1130] | 0 | 0.1607 | −0.4264 | −0.7195 | −0.1908 | 1.024 | −0.8602 | −0.04006 | −0.2144 | −0.3738 | −0.3485 | 1.454 | 0.1101 | −0.08364 | 0.3475 | 1.376 | 1.245 | −0.652 | 1.336 | 2.159 | Average Area Under the Viability Curve (AUC), AUC norm value (NCC20): −0.8247; Average Area Under the Viability Curve (AUC), AUC norm value (NCC59): 0.7588; Average Area Under the Viability Curve (AUC), AUC norm value (YCC3): 0.8784; Average Area Under the Viability Curve (AUC), AUC norm value (SNU601): 3.24; Average Area Under the Viability Curve (AUC), AUC norm value (AGS): −0.6997; Average Area Under the Viability Curve (AUC), AUC norm value (SNU1): 1.527; Average Area Under the Viability Curve (AUC), AUC norm value (SNU484): −0.8971; Average Area Under the Viability Curve (AUC), AUC norm value (YCC2): 0.94; Average Area Under the Viability Curve (AUC), AUC norm value (FU97): −0.7929; AUC value [1]: high |
